Laboratory results taken from ChEMBL document CHEMBL1268952, “Design, synthesis, and evaluation of indolinones as inhibitors of the transforming growth factor β receptor I (TGFβRI)” (J Med Chem, 2010).

Legend:
[1] = Inhibition of PKA at 1 uM; values are per cent of control
[2] = target: T1, Lymphokine-activated killer T-cell-originated protein kinase (Homo sapiens) (UniProt Q96KB5); test: Inhibition of PBK at 1 uM; values are per cent of control
T1 sequence (whole entry): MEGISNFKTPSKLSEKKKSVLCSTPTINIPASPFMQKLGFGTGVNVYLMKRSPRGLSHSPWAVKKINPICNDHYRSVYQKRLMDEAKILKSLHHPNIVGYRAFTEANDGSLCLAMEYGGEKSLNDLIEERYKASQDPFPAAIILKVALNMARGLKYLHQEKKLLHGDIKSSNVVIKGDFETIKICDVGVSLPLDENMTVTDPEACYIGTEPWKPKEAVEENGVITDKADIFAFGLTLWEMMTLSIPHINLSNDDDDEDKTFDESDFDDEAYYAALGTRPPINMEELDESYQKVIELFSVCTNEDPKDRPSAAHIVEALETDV

[3] = Inhibition of CK2 at 1 uM; values are per cent of control
[4] = target: Tyrosine-protein kinase CSK (Homo sapiens) (UniProt P41240); test: Inhibition of CSK at 1 uM; values are per cent of control
Sequence of Tyrosine-protein kinase CSK (Homo sapiens) (P41240 2-450 limits assumed): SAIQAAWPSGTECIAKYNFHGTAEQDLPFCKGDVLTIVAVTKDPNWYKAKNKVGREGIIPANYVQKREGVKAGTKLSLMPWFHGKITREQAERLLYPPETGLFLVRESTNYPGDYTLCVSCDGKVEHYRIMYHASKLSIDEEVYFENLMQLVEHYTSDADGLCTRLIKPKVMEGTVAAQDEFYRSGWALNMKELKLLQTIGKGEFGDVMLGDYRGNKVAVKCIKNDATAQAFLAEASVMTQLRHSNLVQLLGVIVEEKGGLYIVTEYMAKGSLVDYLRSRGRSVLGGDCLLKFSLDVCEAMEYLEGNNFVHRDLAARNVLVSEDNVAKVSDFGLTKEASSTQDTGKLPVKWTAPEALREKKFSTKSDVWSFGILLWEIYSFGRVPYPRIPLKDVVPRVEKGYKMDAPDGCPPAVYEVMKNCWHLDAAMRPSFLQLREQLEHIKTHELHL

[5] = Inhibition of CK1 at 1 uM; values are per cent of control
[6] = target: T2, MAP kinase-activated protein kinase 5 (Homo sapiens) (UniProt Q8IW41); test: Inhibition of PRAK at 1 uM; values are per cent of control
T2 sequence (whole entry): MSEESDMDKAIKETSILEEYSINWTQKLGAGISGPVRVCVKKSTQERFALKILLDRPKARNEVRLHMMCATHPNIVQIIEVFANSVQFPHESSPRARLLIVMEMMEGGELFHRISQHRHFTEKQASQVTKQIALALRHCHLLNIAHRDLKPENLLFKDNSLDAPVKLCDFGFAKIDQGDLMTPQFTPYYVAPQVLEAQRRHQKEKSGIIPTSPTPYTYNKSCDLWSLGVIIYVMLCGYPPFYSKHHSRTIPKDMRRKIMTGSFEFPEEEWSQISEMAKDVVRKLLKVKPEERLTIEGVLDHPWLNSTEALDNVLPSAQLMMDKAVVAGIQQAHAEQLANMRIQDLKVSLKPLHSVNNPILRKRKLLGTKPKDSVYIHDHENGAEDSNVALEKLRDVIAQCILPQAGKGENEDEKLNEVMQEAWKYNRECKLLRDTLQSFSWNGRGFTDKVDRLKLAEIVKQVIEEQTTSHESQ

[7] = target: Serine/threonine-protein kinase Nek6 (Homo sapiens) (UniProt Q9HC98); test: Inhibition of NEK6 at 1 uM; values are per cent of control
Sequence of Serine/threonine-protein kinase Nek6 (Homo sapiens) (Q9HC98 whole entry): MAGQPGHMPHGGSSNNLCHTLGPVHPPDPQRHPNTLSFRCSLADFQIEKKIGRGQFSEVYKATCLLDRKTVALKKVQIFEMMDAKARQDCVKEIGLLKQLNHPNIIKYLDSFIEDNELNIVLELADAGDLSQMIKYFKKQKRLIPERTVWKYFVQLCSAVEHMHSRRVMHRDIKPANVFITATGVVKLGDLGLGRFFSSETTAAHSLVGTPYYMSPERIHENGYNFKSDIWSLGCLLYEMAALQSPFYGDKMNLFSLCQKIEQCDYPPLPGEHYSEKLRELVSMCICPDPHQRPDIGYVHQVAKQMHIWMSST

[8] = target: Ribosomal protein S6 kinase alpha-5 (Homo sapiens) (UniProt O75582); test: Inhibition of MSK1 at 1 uM; values are per cent of control
Sequence of Ribosomal protein S6 kinase alpha-5 (Homo sapiens) (O75582 whole entry, looked up): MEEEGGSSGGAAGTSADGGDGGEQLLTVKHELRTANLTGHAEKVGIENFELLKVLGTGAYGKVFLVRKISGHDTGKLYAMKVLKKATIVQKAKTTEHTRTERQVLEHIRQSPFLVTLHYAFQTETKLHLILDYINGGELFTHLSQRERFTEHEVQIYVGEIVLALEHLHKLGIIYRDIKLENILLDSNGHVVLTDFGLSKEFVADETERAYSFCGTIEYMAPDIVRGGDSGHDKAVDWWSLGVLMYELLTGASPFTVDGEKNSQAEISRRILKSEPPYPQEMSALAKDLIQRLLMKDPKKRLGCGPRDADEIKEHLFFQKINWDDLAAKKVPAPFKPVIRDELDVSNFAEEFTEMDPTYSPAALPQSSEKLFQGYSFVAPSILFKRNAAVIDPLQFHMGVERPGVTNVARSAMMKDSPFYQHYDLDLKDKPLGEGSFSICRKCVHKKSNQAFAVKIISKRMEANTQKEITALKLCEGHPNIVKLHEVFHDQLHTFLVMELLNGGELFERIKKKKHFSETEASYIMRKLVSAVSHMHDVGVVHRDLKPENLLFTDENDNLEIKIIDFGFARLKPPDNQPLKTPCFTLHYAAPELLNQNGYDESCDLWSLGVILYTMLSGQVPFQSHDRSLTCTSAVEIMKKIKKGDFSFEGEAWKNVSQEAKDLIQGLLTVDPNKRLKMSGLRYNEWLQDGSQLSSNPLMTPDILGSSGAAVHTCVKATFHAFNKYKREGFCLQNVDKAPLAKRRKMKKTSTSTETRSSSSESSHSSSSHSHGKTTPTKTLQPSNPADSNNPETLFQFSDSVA

[9] = target: Mitogen-activated protein kinase 1 (Homo sapiens) (UniProt P28482); test: Inhibition of ERK2 at 1 uM; values are per cent of control
Sequence of Mitogen-activated protein kinase 1 (Homo sapiens) (P28482 whole entry): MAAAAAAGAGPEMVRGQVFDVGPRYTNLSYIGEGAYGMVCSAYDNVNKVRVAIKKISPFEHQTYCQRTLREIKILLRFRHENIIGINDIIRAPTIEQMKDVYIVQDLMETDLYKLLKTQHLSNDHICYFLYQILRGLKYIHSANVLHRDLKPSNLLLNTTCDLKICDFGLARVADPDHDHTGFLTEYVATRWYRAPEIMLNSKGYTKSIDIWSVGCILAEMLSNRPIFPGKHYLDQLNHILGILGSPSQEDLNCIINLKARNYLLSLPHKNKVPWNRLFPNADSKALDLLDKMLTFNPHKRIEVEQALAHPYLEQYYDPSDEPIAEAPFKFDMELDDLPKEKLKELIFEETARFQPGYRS

[10] = target: T3, Serine/threonine-protein kinase Chk1 (Homo sapiens) (UniProt O14757); test: Inhibition of CHK1 at 1 uM; values are per cent of control
T3 sequence (whole entry): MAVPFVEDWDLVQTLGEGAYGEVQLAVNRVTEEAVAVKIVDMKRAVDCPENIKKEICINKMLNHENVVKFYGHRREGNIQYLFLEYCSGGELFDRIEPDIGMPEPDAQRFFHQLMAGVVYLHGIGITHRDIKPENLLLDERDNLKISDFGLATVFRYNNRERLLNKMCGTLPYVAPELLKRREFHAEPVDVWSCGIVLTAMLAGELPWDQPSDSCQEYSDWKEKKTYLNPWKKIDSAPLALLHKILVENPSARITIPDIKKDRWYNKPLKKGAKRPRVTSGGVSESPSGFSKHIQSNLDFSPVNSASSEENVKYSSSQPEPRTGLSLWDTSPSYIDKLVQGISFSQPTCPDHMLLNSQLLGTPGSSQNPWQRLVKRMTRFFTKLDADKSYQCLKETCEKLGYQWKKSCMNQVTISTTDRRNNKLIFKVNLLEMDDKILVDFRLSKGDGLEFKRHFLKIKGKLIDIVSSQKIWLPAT

[11] = Inhibition of AMPK at 1 uM; values are per cent of control
[12] = target: Rho-associated protein kinase 2 (Homo sapiens) (UniProt O75116); test: Inhibition of ROCK2 at 1 uM; values are per cent of control
Sequence of Rho-associated protein kinase 2 (Homo sapiens) (O75116 whole entry, looked up): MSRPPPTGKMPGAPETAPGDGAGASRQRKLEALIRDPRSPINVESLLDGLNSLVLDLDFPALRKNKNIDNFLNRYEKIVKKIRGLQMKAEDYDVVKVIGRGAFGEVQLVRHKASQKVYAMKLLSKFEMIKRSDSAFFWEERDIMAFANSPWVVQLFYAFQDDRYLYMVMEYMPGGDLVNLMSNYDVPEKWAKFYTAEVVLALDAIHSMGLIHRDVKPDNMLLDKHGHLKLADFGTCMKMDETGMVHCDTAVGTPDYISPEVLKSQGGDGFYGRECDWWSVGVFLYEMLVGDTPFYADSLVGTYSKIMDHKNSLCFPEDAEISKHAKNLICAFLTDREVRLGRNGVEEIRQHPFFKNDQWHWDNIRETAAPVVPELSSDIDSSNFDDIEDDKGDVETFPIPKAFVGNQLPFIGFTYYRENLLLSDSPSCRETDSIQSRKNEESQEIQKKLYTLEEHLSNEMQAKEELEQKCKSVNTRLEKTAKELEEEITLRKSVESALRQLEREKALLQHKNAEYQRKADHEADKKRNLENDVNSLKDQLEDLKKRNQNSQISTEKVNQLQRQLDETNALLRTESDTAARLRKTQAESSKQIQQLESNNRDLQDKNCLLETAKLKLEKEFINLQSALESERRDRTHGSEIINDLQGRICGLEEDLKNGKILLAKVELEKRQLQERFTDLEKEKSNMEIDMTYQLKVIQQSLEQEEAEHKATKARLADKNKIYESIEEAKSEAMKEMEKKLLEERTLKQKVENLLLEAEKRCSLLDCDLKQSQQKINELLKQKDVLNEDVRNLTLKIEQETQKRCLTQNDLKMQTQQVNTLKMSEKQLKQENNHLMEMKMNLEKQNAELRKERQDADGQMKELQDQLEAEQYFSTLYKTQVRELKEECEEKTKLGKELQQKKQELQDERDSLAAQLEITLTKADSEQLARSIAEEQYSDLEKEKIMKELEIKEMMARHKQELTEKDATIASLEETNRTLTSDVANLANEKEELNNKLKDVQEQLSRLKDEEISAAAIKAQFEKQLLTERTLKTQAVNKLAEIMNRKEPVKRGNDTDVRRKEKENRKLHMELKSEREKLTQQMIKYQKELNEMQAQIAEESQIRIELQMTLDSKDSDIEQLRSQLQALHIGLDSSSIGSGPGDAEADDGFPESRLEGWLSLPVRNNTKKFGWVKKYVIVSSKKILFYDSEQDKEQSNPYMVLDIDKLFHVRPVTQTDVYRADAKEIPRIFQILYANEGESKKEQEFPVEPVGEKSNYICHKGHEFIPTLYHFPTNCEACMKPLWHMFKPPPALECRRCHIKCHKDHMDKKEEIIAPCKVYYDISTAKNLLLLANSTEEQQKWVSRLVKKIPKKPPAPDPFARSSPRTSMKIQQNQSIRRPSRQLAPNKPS

[13] = target: T4, Serine/threonine-protein kinase Nek2 (Homo sapiens) (UniProt P51955); test: Inhibition of NEK2A at 1 uM; values are per cent of control
T4 sequence (whole entry): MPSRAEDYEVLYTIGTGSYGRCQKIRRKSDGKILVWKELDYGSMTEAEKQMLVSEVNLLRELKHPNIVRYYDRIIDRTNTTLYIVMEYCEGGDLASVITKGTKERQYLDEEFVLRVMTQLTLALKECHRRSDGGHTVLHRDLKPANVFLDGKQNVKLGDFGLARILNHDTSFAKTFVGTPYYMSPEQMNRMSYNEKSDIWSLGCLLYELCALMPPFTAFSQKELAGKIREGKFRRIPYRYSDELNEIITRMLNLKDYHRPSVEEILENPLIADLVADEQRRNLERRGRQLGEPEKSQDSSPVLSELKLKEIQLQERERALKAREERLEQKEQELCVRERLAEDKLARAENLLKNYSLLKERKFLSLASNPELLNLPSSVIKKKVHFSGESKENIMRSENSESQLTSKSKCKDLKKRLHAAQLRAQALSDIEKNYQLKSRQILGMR

[14] = target: Dual specificity tyrosine-phosphorylation-regulated kinase 1A (Homo sapiens) (UniProt Q13627); test: Inhibition of DYRK1A at 1 uM; values are per cent of control
[15] = target: Protein kinase C alpha type (Homo sapiens) (UniProt P17252); test: Inhibition of PKCalpha at 1 uM; values are per cent of control
[16] = target: Glycogen synthase kinase-3 beta (Homo sapiens) (UniProt P49841); test: Inhibition of GSK3-beta at 1 uM; values are per cent of control
Sequence of Glycogen synthase kinase-3 beta (Homo sapiens) (P49841 whole entry, looked up): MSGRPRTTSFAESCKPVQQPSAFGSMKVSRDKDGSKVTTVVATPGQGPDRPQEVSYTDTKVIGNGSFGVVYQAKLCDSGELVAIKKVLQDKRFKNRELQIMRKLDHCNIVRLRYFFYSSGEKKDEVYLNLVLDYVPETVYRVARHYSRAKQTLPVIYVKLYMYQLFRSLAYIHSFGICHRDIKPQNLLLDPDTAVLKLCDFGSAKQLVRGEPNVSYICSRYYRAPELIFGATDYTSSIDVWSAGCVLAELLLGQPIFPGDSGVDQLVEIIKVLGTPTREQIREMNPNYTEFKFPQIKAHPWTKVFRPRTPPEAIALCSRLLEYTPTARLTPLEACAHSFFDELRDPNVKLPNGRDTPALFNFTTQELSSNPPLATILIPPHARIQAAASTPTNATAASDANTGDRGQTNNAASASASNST

| SMILES | residual activity [1] | residual activity [2] | residual activity [3] | residual activity [4] | residual activity [5] | residual activity [6] | residual activity [7] | residual activity [8] | residual activity [9] | residual activity [10] | residual activity [11] | residual activity [12] | residual activity [13] | residual activity [14] | residual activity [15] | residual activity [16] |
| --- | --- | --- | --- | --- | --- | --- | --- | --- | --- | --- | --- | --- | --- | --- | --- | --- |
| CCNCc1ccc(N/C(=C2\C(=O)Nc3cc(C(=O)N(C)CC)ccc32)c2ccccc2)cc1 | 96% | 88% | 86% | 78% | 90% | 70% | 92% | 83% | 87% | 85% | 81% | 80% | 72% | 86% | 85% | 56% |
| CCNC(=O)c1ccc2c(c1)NC(=O)/C2=C(\Nc1ccc(CN(C)C)cc1)c1ccccc1 | 90% | 102% | 95% | 96% | 102% | 96% | 123% | 104% | 98% | 84% | 85% | 95% | 98% | 105% | 89% | 114% |
| O=C1Nc2ccccc2/C1=C(/Nc1ccc(CN2CCCCC2)cc1)c1ccccc1 | 12% | 5% | 90% | 32% | 17% | 38% | 86% | 8% | 77% | 6% | 4% | 54% | 39% | 18% | 29% | 1% |
| CCNC(=O)c1ccc2c(c1)NC(=O)/C2=C(\Nc1ccc(N(CCN(C)C)S(C)(=O)=O)cc1)c1ccccc1 | 75% | 101% | 94% | 83% | 100% | 67% | 118% | 105% | 104% | 51% | 74% | 88% | 70% | 96% | 100% | 124% |
| CN(C)C(=O)c1ccc2c(c1)/C(=C(/Nc1ccc(CN3CCCCC3)cc1)c1ccccc1)C(=O)N2 | 69% | 19% | 73% | 74% | 95% | 59% | 87% | 36% | 95% | 8% | 2% | 79% | 81% | 45% | 28% | 5% |
| CCN(C)C(=O)c1ccc2c(c1)NC(=O)/C2=C(\Nc1ccc(CN2CCCCC2)cc1)c1ccccc1 | 96% | 150% | 98% | 72% | 108% | 87% | 88% | 92% | 96% | 74% | 80% | 88% | 96% | 88% | 88% | 82% |
